One assay concerns S. aureus ATCC 29213. The experiment in a line: Broth microdilution MIC assay. It is filed as cell-based. Conditions: Staphylococcus aureus, ATCC29213; broth microdilution, 16-20 hours at 37° C.; read-out: S. aureus 29213 MIC. As for the experimental part:
(§1) To determine the ability of test compounds to potentiate the inhibition of the growth of bacterial strains, classic cell based broth microdilution MIC assays were employed. MIC assays are performed according to CLSI methods except where otherwise noted (CLSI, 2011 and CLSI, 2009). The reference strain S. aureus ATCC 29213 and the hyper-permeable E. coli 901C were used to determine the ability of the PBP compounds to inhibit bacterial growth. Briefly, cryo-preserved bacterial cultures of clinical strains are streaked for isolation on appropriate agar medium, in this case Mueller Hinton II agar. Following incubation to allow formation of colonies these plates are sealed with parafilm and stored refrigerated for up to two weeks. For preparation of assay inocula and to ensure low variability, at least 5 colonies are picked from the agar plates with an inoculating loop and aseptically transferred to a culture tube containing 3 mL of Mueller-Hinton Broth (supplemented with divalent cations to required levels based on Manufacturers' certification). The broth culture is grown for 3-5 hours at 37° C. with shaking at 200 rpm. Meanwhile, 2-fold serial dilutions of test compounds are conducted in a 96 well plate with a final volume of 75 μL per well at 2-fold the final desired concentration. After the dilution plates are set up the growing cultures are then diluted in a cuvette containing MH II broth and the optical density is measured at 600 nm. Inocula are diluted such that 75 μL of this culture in Mueller-Hinton Broth results in a starting bacterial concentration of 5×10^5 CFU/mL when added to the dilution plates. The plates are incubated 16-20 hours at 37° C. The MIC is read visually as the lowest concentration well with no bacterial growth.
On the technique in general: In broth dilution the organism is exposed to a series of concentrations in liquid medium.

The test system of assay [1] is hyper-permeable E. coli 901C. The assay is described as follows: Broth microdilution MIC assay. It is filed as cell-based. The settings on record: Escherichia coli, read-out: E. coli 901C MIC. On the procedure: as §1
For assay [2], the system named is E. coli DH5α/pLBII-CTX-M15. The experiment in a line: Broth microdilution MIC assay, engineered strain producing CTX-M15. Conditions: Escherichia coli, read-out: E. coli DH5α/pLBII-CTX-M15 Microbiological Activity (MIC). It is filed as cell-based, Escherichia coli. As for the experimental part: as §1
To determine if test compounds were affected by CTX-M15, the most abundant extended spectrum β-lactamase in clinical settings worldwide, the inhibition of the growth of an engineered strain of Escherichia coli harboring CTX-M15 was tested. This strain was constructed by cloning the gene encoding CTX-M15 into the NdeI and BamHI restriction endonuclease sites of plasmid pLBII, placing the gene(s) under the control of the Lac promoter. The constructed expression plasmid for CTX-M15 was used to transform competent E. coli DH5a cells to make the engineered strain, including an empty pLBII vector control strain. The classic cell based broth microdilution MIC assay was employed as described above with the addition of control antibiotics, known to be degraded by β-lactamases (Ceftazidime, piperacillin and piperacillin+tazobactam).

This note sets out measurements from patent US11332485B2, “Penicillin-binding protein inhibitors” (priority 2017, dated 2022).

The structures appear in SMILES notation. Some results are limits rather than exact numbers.

For the compound `Nc1nc(C(NC(=O)NCC(=O)O)C(=O)N[C@H]2Cc3cccc(C(=O)O)c3OB2O)cs1` (stereo partly drawn) [Example 90, (3R)-3-(2-(2-aminothiazol-4-yl)-2-(3-(carboxymethyl)ureido)acetamido)-2-hydroxy-3,4-dihydro-2H-benzo[e][1,2]oxaborinine-8-carboxylic acid], the MIC in the assay on S. aureus ATCC 29213 is greater than 128 µg/mL; in assay [1], less than 64 µg/mL; in assay [2], 128 to 256 µg/mL.
In the case of `CCN1CCN(C(=O)N[C@@H](C(=O)N[C@H]2Cc3cccc(C(=O)O)c3OB2O)C(O)c2ccccc2)C(=O)C1=O` (single isomer, unassigned) [Example 80], the MIC in the assay with S. aureus ATCC 29213 is 64 to 128 µg/mL; in assay [1], less than 64 µg/mL.
As to `CS(=O)(=O)N1CCC(C(=O)NC(C(=O)N[C@H]2Cc3cccc(C(=O)O)c3OB2O)c2csc(N)n2)CC1` (stereo partly drawn) [Example 70, (3R)-3-(2-(2-aminothiazol-4-yl)-2-(1-(methylsulfonyl)piperidine-4-carboxamido)acetamido)-2-hydroxy-3,4-dihydro-2H-benzo[e][1,2]oxaborinine-8-carboxylic acid], the MIC in the assay with S. aureus ATCC 29213 was greater than 128 µg/mL; in assay [1], less than 64 µg/mL.
As to `NCC1CCN(C(=O)NC(C(=O)N[C@H]2Cc3cccc(C(=O)O)c3OB2O)c2csc(N)n2)CC1` (stereo partly drawn) [Example 75, (3R)-3-(2-(4-(aminomethyl)piperidine-1-carboxamido)-2-(2-aminothiazol-4-yl)acetamido)-2-hydroxy-3,4-dihydro-2H-benzo[e][1,2]oxaborinine-8-carboxylic acid], the MIC with S. aureus ATCC 29213 is greater than 128 µg/mL; in assay [1], less than 64 µg/mL.
As for `NCC1CCCN(C(=O)NC(C(=O)N[C@H]2Cc3cccc(C(=O)O)c3OB2O)c2csc(N)n2)C1` (stereo partly drawn) [Example 76, (3R)-3-(2-(3-(aminomethyl)piperidine-1-carboxamido)-2-(2-aminothiazol-4-yl)acetamido)-2-hydroxy-3,4-dihydro-2H-benzo[e][1,2]oxaborinine-8-carboxylic acid], the MIC with S. aureus ATCC 29213 was greater than 128 µg/mL; in assay [1], 64 to 128 µg/mL.
Regarding `CC(=O)N1CCN(C(=O)NC(C(=O)N[C@H]2Cc3cccc(C(=O)O)c3OB2O)c2csc(N)n2)C1=O` (stereo partly drawn) [Example 71, (3R)-3-(2-(3-acetyl-2-oxoimidazolidine-1-carboxamido)-2-(2-aminothiazol-4-yl)acetamido)-2-hydroxy-3,4-dihydro-2H-benzo[e][1,2]oxaborinine-8-carboxylic acid], the MIC was 64 to 128 µg/mL in the assay on S. aureus ATCC 29213 and less than 64 µg/mL in assay [1].
For `Nc1nc(C(NC(=O)CCB(O)O)C(=O)N[C@H]2Cc3cccc(C(=O)O)c3OB2O)cs1` (stereo partly drawn) [Example 89, (3R)-3-(2-(2-aminothiazol-4-yl)-2-(3-boronopropanamido)acetamido)-2-hydroxy-3,4-dihydro-2H-benzo[e][1,2]oxaborinine-8-carboxylic acid], the MIC with S. aureus ATCC 29213 is greater than 128 µg/mL; in assay [1] it was greater than 128 µg/mL; in assay [2] it was 128 to 256 µg/mL.
As for `CCN1CCN(C(=O)NC(C(=O)N[C@H]2Cc3cccc(C(=O)O)c3OB2O)C(C)c2ccccc2)C(=O)C1=O` (stereo partly drawn) [Example 84, (3R)-3-(2-(4-ethyl-2,3-dioxopiperazine-1-carboxamido)-3-phenylbutanamido)-2-hydroxy-3,4-dihydro-2H-benzo[e][1,2]oxaborinine-8-carboxylic acid], the values for the MIC (in the assay on S. aureus ATCC 29213; in assay [1]; in assay [2]) were 64 to 128 µg/mL, less than 64 µg/mL and 128 to 256 µg/mL, respectively.
`Nc1nc(C(NCC(=O)O)C(=O)N[C@H]2Cc3cccc(C(=O)O)c3OB2O)cs1` (stereo partly drawn) [Example 10, (3R)-3-(2-(2-aminothiazol-4-yl)-2-((carboxymethyl)amino)acetamido)-2-hydroxy-3,4-dihydro-2H-benzo[e][1,2]oxaborinine-8-carboxylic acid]: the MIC in the assay with S. aureus ATCC 29213 is greater than 128 µg/mL.
For `CCN1CCN(C(=O)N[C@H](C(=O)N[C@H]2Cc3cccc(C(=O)O)c3OB2O)C(O)c2ccccc2)C(=O)C1=O` (single isomer, unassigned) [Example 81], the MIC (in the assay on S. aureus ATCC 29213; in assay [1]) was greater than 128 µg/mL in each case.
